Measured values published in US20240092758A1, “IMIDAZOLO INDAZOLE COMPOUNDS AS JAK INHIBITORS” (Theravance Biopharma R&D IP, LLC, priority 2021, published 2024).

Tests used:
JAK1 = JAK1 (Homo sapiens (Human), UniProt P23458); experiment: Biochemical JAK kinase assay (LanthaScreen), JAK1; details: for Ki: read-out: JAK1 pKi (converted)
Method in brief: (§1)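 LanthaScreen format: phospho-STAT1 (pTyr701) detected with 2 nM Tb antibody after 10 mM EDTA quench. Kinase step used Km-level ATP and 200 nM STAT1 peptide, 1 h at ambient after 1 h pre-incubation. Inhibition fitted to IC50, reported as pKi.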

JAK2 = JAK2 (Homo sapiens (Human), UniProt O60674); experiment: Biochemical JAK kinase assay (LanthaScreen), JAK2; details: for Ki: read-out: JAK2 pKi (converted)
Chain of JAK2 (O60674 whole entry): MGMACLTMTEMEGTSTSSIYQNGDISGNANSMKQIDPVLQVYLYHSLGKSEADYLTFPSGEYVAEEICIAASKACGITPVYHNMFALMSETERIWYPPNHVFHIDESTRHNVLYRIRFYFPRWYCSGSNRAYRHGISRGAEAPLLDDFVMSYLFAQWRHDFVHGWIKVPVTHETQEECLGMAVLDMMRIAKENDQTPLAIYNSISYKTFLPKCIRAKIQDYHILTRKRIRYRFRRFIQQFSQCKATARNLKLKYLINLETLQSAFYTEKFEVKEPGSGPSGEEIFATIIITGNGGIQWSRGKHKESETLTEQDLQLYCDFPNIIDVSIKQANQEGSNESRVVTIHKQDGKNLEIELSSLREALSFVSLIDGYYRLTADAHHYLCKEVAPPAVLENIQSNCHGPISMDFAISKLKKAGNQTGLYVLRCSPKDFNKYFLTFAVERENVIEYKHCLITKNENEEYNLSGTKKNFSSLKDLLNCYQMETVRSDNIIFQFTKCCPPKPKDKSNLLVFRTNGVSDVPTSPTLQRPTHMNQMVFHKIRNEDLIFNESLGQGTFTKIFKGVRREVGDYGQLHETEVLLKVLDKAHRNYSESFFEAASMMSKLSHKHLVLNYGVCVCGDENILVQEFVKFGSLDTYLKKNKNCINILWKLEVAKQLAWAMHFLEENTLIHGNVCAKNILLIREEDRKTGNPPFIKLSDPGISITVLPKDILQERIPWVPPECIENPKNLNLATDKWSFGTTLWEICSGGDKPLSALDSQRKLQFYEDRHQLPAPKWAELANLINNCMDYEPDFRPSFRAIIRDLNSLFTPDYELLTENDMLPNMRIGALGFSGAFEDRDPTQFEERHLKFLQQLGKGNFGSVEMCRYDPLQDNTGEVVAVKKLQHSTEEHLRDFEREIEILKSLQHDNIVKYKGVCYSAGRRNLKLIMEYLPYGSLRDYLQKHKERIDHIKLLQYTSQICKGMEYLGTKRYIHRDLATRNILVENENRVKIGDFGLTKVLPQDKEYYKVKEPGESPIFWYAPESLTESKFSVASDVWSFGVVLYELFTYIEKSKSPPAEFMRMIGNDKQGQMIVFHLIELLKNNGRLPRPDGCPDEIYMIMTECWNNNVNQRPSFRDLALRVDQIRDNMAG
Method in brief: as §1

[1] = test system: IL-13 induced STAT6 phosphorylation in BEAS-2B human lung epithelial cells; experiment: Cellular JAKI potency assay (BEAS-2B); type: cell-based; details: BEAS-2B cells; for IC50: Homo sapiens, BEAS-2B, read-out: BEAS2B pIC50 (converted)
Method in brief: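 BEAS-2B cells were preincubated with compound (0.1% DMSO) in HBSS/HEPES/BSA for 1 h at 37 °C, then stimulated with IL-13 (80 ng/mL before addition) for 30 min. After lysis, pSTAT6 (Tyr641) was quantified by AlphaLISA SureFire; IC50 from a 4-parameter fit of percent inhibition, reported as pIC50.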

Chain of JAK1 (P23458 whole entry): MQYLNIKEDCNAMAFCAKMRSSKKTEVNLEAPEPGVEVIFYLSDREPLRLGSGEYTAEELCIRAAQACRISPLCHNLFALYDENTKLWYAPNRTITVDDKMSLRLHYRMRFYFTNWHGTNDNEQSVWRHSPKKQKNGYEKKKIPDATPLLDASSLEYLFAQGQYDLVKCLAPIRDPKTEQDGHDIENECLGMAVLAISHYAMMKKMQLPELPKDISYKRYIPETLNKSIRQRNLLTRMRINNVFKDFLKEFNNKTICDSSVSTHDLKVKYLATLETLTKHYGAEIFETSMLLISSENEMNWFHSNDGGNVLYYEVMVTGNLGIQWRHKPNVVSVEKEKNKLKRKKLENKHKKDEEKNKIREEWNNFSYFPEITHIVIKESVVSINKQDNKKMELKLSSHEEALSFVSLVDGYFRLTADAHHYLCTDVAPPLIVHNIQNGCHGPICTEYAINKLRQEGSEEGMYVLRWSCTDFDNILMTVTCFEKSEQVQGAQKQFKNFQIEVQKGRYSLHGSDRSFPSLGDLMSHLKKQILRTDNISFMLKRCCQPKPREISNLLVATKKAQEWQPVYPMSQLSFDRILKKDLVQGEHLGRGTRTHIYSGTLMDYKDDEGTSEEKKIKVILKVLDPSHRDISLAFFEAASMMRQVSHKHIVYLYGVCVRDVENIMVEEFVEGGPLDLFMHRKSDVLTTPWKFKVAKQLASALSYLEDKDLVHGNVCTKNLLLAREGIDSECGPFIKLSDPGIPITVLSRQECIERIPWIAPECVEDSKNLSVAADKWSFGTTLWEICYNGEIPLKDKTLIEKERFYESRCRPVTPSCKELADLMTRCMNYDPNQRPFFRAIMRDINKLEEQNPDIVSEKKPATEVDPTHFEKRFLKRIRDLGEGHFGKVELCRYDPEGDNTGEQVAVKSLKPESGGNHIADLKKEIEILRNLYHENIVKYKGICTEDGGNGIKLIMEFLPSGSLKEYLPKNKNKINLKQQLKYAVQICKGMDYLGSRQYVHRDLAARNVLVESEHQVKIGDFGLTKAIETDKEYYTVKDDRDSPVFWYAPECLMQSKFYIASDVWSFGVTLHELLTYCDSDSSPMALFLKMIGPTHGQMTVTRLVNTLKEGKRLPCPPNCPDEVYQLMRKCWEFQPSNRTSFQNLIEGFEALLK

Row | SMILES | Ki (JAK1) [nM] | Ki (JAK2) [nM] | IC50 [1] [nM] | JAK2 pKi (JAK2) | JAK1 pKi (JAK1) | BEAS2B pIC50 [1]
1 | CCc1cc(O)ccc1-c1ccc2c(-c3nc(C4=CCN(CCC5(O)CC5)CC4)c[nH]3)n[nH]c2c1F [Example 322] | 0.1 to 1 | 0.1 to 1 | 10 to 31.6 | – | – | –
2 | CCc1cc(O)ccc1-c1ccc2c(-c3nc(C4=CCN([C@H]5CC[C@@](O)(C(F)(F)F)CC5)C4)c[nH]3)n[nH]c2c1F [Example 359] | 1 to 10 | 0.1 to 1 | 31.6 to 100 | – | – | –
3 | CCc1cc(O)ccc1-c1ccc2c(-c3nc(C4=C[C@H](CC(=O)N5CCOCC5)NC4)c[nH]3)n[nH]c2c1F [Example 361] | 0.1 to 1 | – | 31.6 to 100 | A (A represents a pKi value ≥10 (Ki≤0.1 nM)) | – | –
4 | CCc1cc(O)ccc1-c1ccc2c(-c3nc(C4=C[C@@H](CC(=O)N(C)C)NC4)c[nH]3)n[nH]c2c1F [Example 256] | – | – | 31.6 to 100 | A (A represents a pKi value ≥10 (Ki≤0.1 nM)) | A (A represents a pKi value ≥10 (Ki≤0.1 nM)) | –
5 | CCc1cc(O)ccc1-c1ccc2c(-c3nc(C4=CCN(Cc5cn[nH]c5)CC4)c[nH]3)n[nH]c2c1F [Compound 11, 4-(3-(4-(1-((1H-pyrazol-4-yl)methyl)-1,2,3,6-tetrahydropyridin-4-yl)-1H-imidazol-2-yl)-7-fluoro-1H-indazol-6-yl)-3-ethylphenol] | 0.1 to 1 | – | 10 to 31.6 | A (A represents a pKi value ≥10 (Ki≤0.1 nM)) | – | –
6 | CCc1cc(O)ccc1-c1ccc2c(-c3nc(C4=CC[C@H](C)N([C@H]5C[C@@H](O)C5)C4)c[nH]3)n[nH]c2c1F [Example 265] | 0.1 to 1 | 0.1 to 1 | 3.16 to 10 | – | – | –
7 | CCc1cc(O)ccc1-c1ccc2c(-c3nc(C4=CCN(C(C)=O)CC4)c[nH]3)n[nH]c2c1 [Example 147] | 0.1 to 1 | 0.1 to 1 | 10 to 31.6 | – | – | –
8 | CCc1cc(O)ccc1-c1ccc2c(-c3nc(C4=C[C@@H](CC(=O)OC)NC4)c[nH]3)n[nH]c2c1F [Example 254] | 0.1 to 1 | 0.1 to 1 | 10 to 31.6 | – | – | –
9 | CCc1cc(O)ccc1-c1ccc2c(-c3nc(C4=CCN(C(=O)COCCN(C)C)C4)c[nH]3)n[nH]c2c1F [Example 374] | 0.1 to 1 | – | 31.6 to 100 | A (A represents a pKi value ≥10 (Ki≤0.1 nM)) | – | –
10 | CCc1cc(O)ccc1-c1ccc2c(-c3nc(C4=CCN(C5CC(O)C5)C4)c[nH]3)n[nH]c2c1 (stereo not drawn) [Example 52] | – | – | 3.16 to 10 | A (A represents a pKi value ≥10 (Ki≤0.1 nM)) | A (A represents a pKi value ≥10 (Ki≤0.1 nM)) | –
11 | CCc1cc(O)ccc1-c1ccc2c(-c3nc(C4=CCN(CCCNC(C)=O)CC4)c[nH]3)n[nH]c2c1 [Example 104] | – | – | 3.16 to 10 | A (A represents a pKi value ≥10 (Ki≤0.1 nM)) | A (A represents a pKi value ≥10 (Ki≤0.1 nM)) | –
12 | CCc1cc(O)ccc1-c1ccc2c(-c3nc(C4=CCCN(CCNC(C)=O)C4)c[nH]3)n[nH]c2c1 [Example 109] | 0.1 to 1 | 0.1 to 1 | 10 to 31.6 | – | – | –
13 | CCc1cc(O)ccc1-c1ccc2c(-c3nc(C4=C(C(=O)OC(C)C)CCNC4)c[nH]3)n[nH]c2c1F [Example 315] | 0.1 to 1 | 0.1 to 1 | 10 to 31.6 | – | – | –
14 | CCc1cc(O)ccc1-c1ccc2c(-c3nc(C4=CCN(CCc5ccccc5)CC4)c[nH]3)n[nH]c2c1F [Example 135] | 1 to 10 | 1 to 10 | 100 to 316 | – | – | –
15 | CCc1cc(O)ccc1-c1ccc2c(-c3nc(C4=CCN(CC(=O)NC)CC4)c[nH]3)n[nH]c2c1F [Compound 12, 2-(4-(2-(6-(2-ethyl-4-hydroxyphenyl)-7-fluoro-1H-indazol-3-yl)-1H-imidazol-4-yl)-3,6-dihydropyridin-1(2H)-yl)-N-methylacetamide] | 0.1 to 1 | 0.1 to 1 | 10 to 31.6 | – | – | –
16 | CCc1cc(O)ccc1-c1ccc2c(-c3nc(C4=CCCN(Cc5ccccc5)C4)c[nH]3)n[nH]c2c1 [Example 138] | 0.1 to 1 | 0.1 to 1 | 100 to 316 | – | – | –
17 | CCc1cc(O)ccc1-c1ccc2c(-c3nc(C4=CCN([C@H]5CC[C@@H](O)CC5)C4)c[nH]3)n[nH]c2c1F [Example 129] | – | – | – | A (A represents a pKi value ≥10 (Ki≤0.1 nM)) | A (A represents a pKi value ≥10 (Ki≤0.1 nM)) | A (A represents a pIC50 value between 8 (included) and 8.5)
18 | CCc1cc(O)ccc1-c1ccc2c(-c3nc(C4=CCN(C(C)=O)CC4)c[nH]3)n[nH]c2c1F [Example 154] | 0.1 to 1 | 0.1 to 1 | 10 to 31.6 | – | – | –
19 | CCc1cc(O)ccc1-c1ccc2c(-c3nc(C4=CCC5(CNC5)OC4)c[nH]3)n[nH]c2c1 [Example 229] | 0.1 to 1 | – | 31.6 to 100 | A (A represents a pKi value ≥10 (Ki≤0.1 nM)) | – | –
20 | CCc1cc(O)ccc1-c1ccc2c(-c3nc(C4=CCCN(CCO)C4)c[nH]3)n[nH]c2c1 [Example 41] | 0.1 to 1 | – | 3.16 to 10 | A (A represents a pKi value ≥10 (Ki≤0.1 nM)) | – | –
21 | CCc1cc(O)ccc1-c1ccc2c(-c3nc(C4=CCN(CC(=O)NC)C4)c[nH]3)n[nH]c2c1 [Example 93] | 0.1 to 1 | – | 3.16 to 10 | A (A represents a pKi value ≥10 (Ki≤0.1 nM)) | – | –
